How the values were obtained:
AI-2 activity = test: V. harveyi bioassay for the detection of AI-2 activity; type: cell-based; details: V. harveyi BB170 luminescence
Procedure: The V. harveyi bioassay was performed as described previously (Surette and Bassler, 1998). The V. harveyi reporter strain BB170 was grown for 16 hours at 30° C. with shaking in AB medium. Cells were diluted 1:5,000 into 30° C. prewarmed AB medium and 90 ul of the diluted suspension was added to wells containing supernatant. Furanones were added to the wells to achieve the desired final concentrations and the final volume in each well was adjusted with sterile medium to 100 ul. Ten ul of V. harveyi BB152 (AI-1−, AI-2+) supernatant was used as a positive control and 10 ul of E. coli DH5α supernatant or sterile media was used as a negative control. […] The microtiter plates were incubated at 30° C. with shaking at 175 rpm. Hourly determinations of the total luminescence were quantified using the chemiluminescent setting on a Wallac (Gaithersburg, Md.) model 1450 Microbeta Plus liquid scintillation counter. The V. harveyi cell density was monitored by the use of a microplate reader (Bio-Rad, Hercules, Calif.). Activity is reported as the percentage of activity obtained from V. harveyi BB152 cell-free supernatant. While the absolute values of luminescence varied considerably between experiments, the pattern of results obtained was reproducible.

[1] = tested on: two-component signal transduction; test: Taz-1 assay, two-component signal transduction; type: cell-based, E. coli; details: beta-galactosidase readout
Procedure: The Taz-assay carried out according to the method of Jin and Inouye (1993) with the following alterations. E. coli RU1012 (pYT0301) were grown overnight in M9 medium at 37° C. supplemented with 100 ug/ml ampicillin and 50 ug/ml kanamycin. This overnight culture was then used to inoculate 50 ml M9 medium in side-arm flasks which were then incubated at 37° C. and shaken at 180 rpm. The OD610 of the growing cultures was monitored regularly and when the OD610=0.2 the cultures were placed on ice. Aspartate was added to side-arm flasks to give a final concentration of 3 mM (aspartate stock solution made up in M9 salts).
The test compound or mixtures of compounds were dissolved in ethanol and added to cultures to give the required final concentrations. Negative controls were prepared with equal volumes of ethanol. Cultures were then placed in a 37° C. incubator and shaken for 4 hours (OD610 approximately 0.7) before being removed and put on ice. Samples were then removed for […]eta-galactosidase assays carried out according to the method of Miller (1972).

[2] = tested on: AHL mediated quorum sensing

Row | Compound | AI-2 (AI-2 activity) (AI-2 activity) | 2 component (two-component signal transduction assay) [1] | AHL (inhibitor of AHL-mediated quorum sensing) [2]
1 | CC1=CC(=C(Br)Br)OC1=O [compound 64] | 80% reduction | No effect | good
2 | CC1=CC(=O)OC1(Br)C(Br)Br (stereo not shown) [compound 72] | 97% reduction |  | 

Source: patent publication US6958145B2, “Synthesis of cyclic compounds” (Unisearch Limited, priority 2000, dated 2005)
